The subject of assay [1] is peritoneal MΦs. As to the kind of experiment: MΦ phagocytosis of FITC-labeled zymosan. The format is cell-based, mice. The note with it: for enhancement of MΦ phagocytosis of zymosan: 15 min compound, then FITC-labeled zymosan 30 min, 37° C. The procedure:
(§1) The 7,14-dihydroxy-containing products were isolated from methyl formate fractions obtained from murine MΦs via RP-HPLC (Agilent 1100 series) using a Beckman C18 column (250 mm×10 mm×5 μm) and methanol/water (65/35; v/v) ramped to 85/15 (v/v) for 30 min. Their actions were assessed in murine zymosan A-induced peritonitis (19). Peritonitis was initiated by intraperitoneal (i.p.) administration of 1 mg zymosan A in 1 ml of sterile saline, and each compound was administered i.v. 5 min before zymosan. At 2 h, mice were sacrificed, and peritoneal exudates harvested (5 ml DPBS^−/− without calcium and magnesium), identified and enumerated by light microscopy and FACS. Resident MΦs were identified by FACS (8). To assess pro-resolving actions, peritoneal MΦs (24-well plate, 10^5 cells/well) from naïve mice were incubated with each compound (15 min, pH 7.45) followed by addition of FITC-labeled Zymosan A (30 min, 37° C.). Trypan blue was used to quench extracellular zymosan particles (1 min, 37° C.) followed by DPBS^+/+ (pH 7.45), and phagocytosis quantified using a Perkin-Elmer Victor^3.

For another assay, the system named is PMN. As to the kind of experiment: murine zymosan A-induced peritonitis, exudate PMN. It counts as in vivo, mice. Here is the method:
as §1

Assay [2] deals with peritoneal MΦs. The note with it: literature ref. 13; cited from earlier work.
Another assay has as its system lipoxygenase (LOX). Put plainly: LC/MS/MS lipidomics of peritonitis exudates with LOX inhibitor. It counts as in vivo, mice. The note with it: exudates obtained with the LOX inhibitor, n=3. Here is the method: In view of the actions of specialized chemical mediators in resolution (6, 7), 17-HDHA was monitored as a biomarker of activation and conversion of endogenous DHA, as well as employed targeted lipidomics to query whether other pathways were operative (see FIG. 1). During this course of peritonitis, PMN rapidly entered, reaching max within 12 h. In this self-resolving system (19), PMN declined and were lost from exudates, thus defining resolution (FIG. 1). Unbiased targeted mediator lipidomics employing LC/MS/MS-based analyses were carried out with these exudates. In addition to 17S-HDHA, a marker of resolvin and protectin biosynthesis (6), endogenous DHA was converted to 14S-hydroxydocosahexaenoic acid (14S-HDHA).

Data on 6 compounds can be found in patent US10233168B2, “14-hydroxy-docosahexaenoic acid compounds” (The Brigham And Women's Hospital, Inc., priority 2008, dated 2019).

As to `CC/C=C\C/C=C\CC(O)C=CC=CC=CC(O)C/C=C\CCC(=O)O` (stereo not drawn) [MaR1, 7,14-dihydroxydocosa-4Z,8,10,12,16Z,19Z-hexaenoic acid], the “enhancement of MΦ phagocytosis of zymosan” value (“enhancement” below) with peritoneal MΦs [1] (FIG. 3D) is “enhances phagocytosis”. Moreover, the “potency compared to RvE1 and PD1” value in the assay on peritoneal MΦs [1] (FIG. 3, inset comparison at 1 nM) is given as “comparable potency”. Besides, in the assay with PMN (i.v. before i.p. zymosan, dose response FIG. 3C), the “dose (as low as) that potently reduced infiltration of PMN into sites of inflammation” value was found to be 0.2 ng/mouse. Moreover, the “anti-inflammatory action regulating PMN entry into zymosan-induced peritonitis” value in the assay with PMN (nanogram quantities per mouse, FIG. 3A) is “stopping PMN infiltration”.
`CC/C=C\C[C@H](O)\C=C/C=C/C=C/[C@H](O)C/C=C\C/C=C\CCC(=O)O` [PD1, 10R,17S-dihydroxydocosa-4Z,7Z,11E,13E,15Z,19Z-hexaenoic acid]: the “concentration (as low as) enhancing MΦ phagocytosis” value with peritoneal MΦs [2] is 1 nM.
`CCCCC[C@H](O)/C=C/[C@H]1[C@H](O)CC(=O)[C@@H]1C/C=C\CCCC(=O)O` [PGE2, prostaglandin E2, reference compound]: the “enhancement” value in the assay on peritoneal MΦs [1] (FIG. 3D) was “did not enhance phagocytosis”.
With `CC[C@@H](O)/C=C/C=C\C[C@@H](O)/C=C/C=C/C=C\[C@@H](O)CCCC(=O)O` [RvE1, 5S,12R,18R-trihydroxyeicosa-6Z,8E,10E,14Z,16E-pentaenoic acid], the “concentration (as low as) enhancing MΦ phagocytosis” value in the assay with peritoneal MΦs [2] is reported as 1 nM.
Consider `CC/C=C\C/C=C\C[C@H](O)/C=C/C=C\C=C\[C@@H](O)C/C=C\CCC(=O)O` [double dioxygenation product, 7S,14S-dihydroxydocosa-4Z,8E,10Z,12E,16Z,19Z-hexaenoic acid], for which the “enhancement” value in the assay with peritoneal MΦs [1] (FIG. 3D) is on record as “active”. Moreover, the “potency in phagocytosis compared with the new product isolated from MΦs” value with peritoneal MΦs [1] (direct comparison, FIG. 3D) is given as “less potent”. Moreover, the “PMN infiltration in zymosan-induced peritonitis” value in the assay with PMN (0.1 ng dose per mouse, leukocytes enumerated after 2 h, FIG. 3B) is “reduced PMN infiltration”. The “potency on PMN infiltration compared with the MΦ isolated material” value with PMN (0.1 ng/mouse each, FIG. 3B) is “less potent”.
For `O=c1ccc2cc(O)c(O)cc2o1` [esculetin], the “17S-HDHA and 14S-HDHA in peritonitis exudates” value with lipoxygenase (LOX) was “Neither product was identified”.
